Reference: patent US3988466A, “Prevention of gastric lesions” (priority 1973, dated 1976)

Tests used:
[1] = system: carageenin-induced paw edema in rats; assay: Effect of L-glutamine on anti-inflammatory activity of aspirin in rats (Experiment D); assay type: in vivo, male Donryu strain rats
Procedure: As a control, a sixth group is treated with 1% carboxymethylcellulose solution. After one hour, the animals are treated with a phlogistic agent of 0.1 ml of 1% carrageenin solution by subcutaneous injection in a hind paw, according to the method of Yamasaki et al. [Yamasaki, H. et al: Folia Pharm. Jap., 63, 302 (1967)]. Swelling of the paw is measured 5 hours after the administration of the phlogistic agent.

[2] = system: gastric secretion in pylorus-ligated rats; assay: Effect of L-glutamine on gastric secretion in pylorus-ligated rats (Experiment 4); assay type: in vivo, male Donryu strain rats; conditions: for Gastric juice volume / Pepsin concentration / Titrable acidity: 7 hours; for Acid output: volume × titrable acidity / 7 hours
Procedure: In this Experiment, 7 groups of male Donryu strain rats are used. After 24 hours of fasting, the pylorus of the animal is ligated in the same manner as described in Experiment 1. Six groups are treated in the same manner as described in Experiment 1 except for the injection of the solution of pontamine sky blue 6BX in saline. A seventh group (normal) is treated twice with 5 ml/kg of 1% carboxymethylcellulose solution.
After 7 hours of pylorus ligation, the animals are killed and the stomach is removed. The gastric juice is collected and the volume is measured. The gastric juice is titrated to pH 7.4 with 0.1N NaOH using an electromatic pH meter. The concentration of pepsin in the gastric juice is also determined according to Anson's hemoglobin method [Anson, M. L., J. Gen. Physiol.

[3] = system: aspirin-induced gastric lesions in pylorus-ligated rats; assay: Effect of L-glutamine on aspirin-induced gastric lesions in pylorus-ligated rats (Experiment 1); assay type: in vivo, male Donryu strain rats; conditions: for Ulcer index / Inhibition: aspirin 100 mg/kg oral; for Ulcer index: 7 hours; for Inhibition: vs control ulcer index
Procedure: In this Experiment, 6 groups of male Donryu strain rats are used. The animals are fasted for 24 hours but water is allowed ad libitum. Under ether anesthesia, the pylorus is ligated according to the standard method of Shay et al. Five groups are treated with graded doses of L-glutamine suspended in 1% carboxymethylcellulose solution by oral administration immediately after the pylorus ligation. A sixth group (control) is treated with 5 ml/kg of 1% carboxymethylcellulose solution alone. […] After a 7-hour interval during which the animals are not allowed feed or water, the animals are killed by an overdose of ether. […] The stomach is removed and slightly inflated by injection of 1% formalin solution through the esophagel junction. […] The stomach is opened along the greater curvature and the length of lesions (dark blue areas against pale blue background) in the glandular portion is measured under a dissecting microscope (10x) provided with a square grid. […] The ulcer index expressed by mm indicates the mean value of the sum of the length of the lesions per animal of each group. The level of significance is calculated according to Student t-test.

[4] = system: aspirin-induced gastric lesions in pylorus-ligated rats; assay: Effect of various amino acids on aspirin-induced gastric lesions in pylorus-ligated rats (Experiment 3); assay type: in vivo, male Donryu strain rats
[5] = pH of amino acids in 1% carboxymethylcellulose solution; assay type: physicochemical; conditions: 150 mg/ml in 1% carboxymethylcellulose solution
Procedure: The pH values of the amino acids are also determined. The amino acids are separately dissolved or suspended in 1% carboxymethylcellulose solution at a concentration of 150 mg/ml and the pH is measured on an Hitachi pH meter (product of Hitachi Ltd., Japan).

experimental ulcers = conditions: induced by stress, pylorus ligation, histamine, reserpine or cortisone; cited from earlier work
[6] = system: acetic acid-induced writhing response in mice; assay: Effect of L-glutamine on analgesic activity of aspirin in mice (Experiment C); assay type: in vivo, male dd strain mice; conditions: presence of L-glutamine
Procedure: In this Experiment, 3 groups of male dd strain mice weighing 19-21 g are used.
As a control, the third group is treated only with 1% carboxymethylcellulose solution. After a control period of one hour, the animals are treated with 0.2 ml of 0.7% acetic acid solution in physiological saline by intraperitoneal injection, according to the method of Koster et al. [Koster, R. et al: Fed. Proc., 18, 412 (1959)]. Starting 10 minutes after the administration of acetic acid, the number of writhing reaction occurred in 10 minutes is counted.

[7] = system: indomethacin-induced gastric lesions in pylorus-ligated rats; assay: Effect of L-glutamine on indomethacin-induced gastric lesions in pylorus-ligated rats (Experiment 2); assay type: in vivo, male Donryu strain rats; conditions: for Ulcer index / Inhibition: indomethacin 20 mg/kg i.p.; for Inhibition: vs control ulcer index
Procedure: In this Experiment, 8 groups of male Donryu strain rats are used. The animals are fasted for 24 hours but water is allowed ad libitum. Under ether anesthesia, the pylorus is ligated according to the standard method of Shay et al. Seven groups are treated with graded doses of L-glutamine suspended in 1% carboxymethylcellulose solution by oral administration immediately after the pylorus ligation. An eighth group (control) is treated with 5 ml/kg of 1% carboxymethylcellulose solution alone. Following a control period of 10 minutes, the animals are treated with 20 mg/kg of indomethacin suspended in a trace amount of Tween 80 (trade name of Atlas Chemical Industries Inc., U.S.A.) by intraperitoneal injection. Thereafter, the animals are treated in the same manner as described in Experiment 1 and the length of lesions is measured.

[8] = L-glutamine 1000 mg/kg oral, 5 hours after phlogistic agent
[9] = L-glutamine 62.5 mg/kg, aspirin 100 mg/kg
[10] = L-glutamine 125 mg/kg, aspirin 100 mg/kg
[11] = L-glutamine 250 mg/kg, aspirin 100 mg/kg
[12] = L-glutamine 500 mg/kg, aspirin 100 mg/kg
[13] = L-glutamine 1000 mg/kg in presence of aspirin
[14] = L-glutamine 1,000 mg/kg, aspirin 100 mg/kg

In the case of `NC(=O)CC[C@H](N)C(=O)O` [L-glutamine], the Suppression ratio [1, 8] is reported as 5.4%, the Swelling ratio [1, 8] is reported as 117.2±4.7% and the “influence on anti-inflammatory activity of aspirin” value ([1]; presence of L-glutamine) is reported as “not substantially influenced”. For the same compound, the “acid parameters (in words)” value ([2]; L-glutamine 62.5 mg/kg in presence of aspirin) was “almost the same as those of the control group”, the Gastric juice volume [2, 9] was 12.3 ± 0.5 mL and the Pepsin concentration [2, 9] was 26.3 ± 0.5 mg/mL. The Titrable acidity [2, 9] was 56.2±3.8 mEq/L, the Acid output [2, 9] was 97.8±6.5 μEq/hr and the Gastric juice volume [2, 10] was 12.1 ± 0.6 mL. The Pepsin concentration [2, 10] was 25.5 ± 0.8 mg/mL, the Titrable acidity [2, 10] was 88.9±4.8 mEq/L and the Acid output [2, 10] was 154.0±12.1 μEq/hr. The “appearance of gastric juices compared with control group” value ([2]; L-glutamine 250 mg/kg or more, aspirin 100 mg/kg) was “relatively clear”, the Gastric juice volume [2, 11] was 12.5 ± 0.5 mL and the Pepsin concentration [2, 11] was 27.1 ± 0.7 mg/mL. The Titrable acidity [2, 11] was 108.0±4.2 mEq/L, the Acid output [2, 11] was 194.1±13.5 μEq/hr and the “change in acid parameters (in words)” value ([2]; L-glutamine 500 mg/kg in presence of aspirin) was “No significant change”. For the same compound, the Gastric juice volume [2, 12] was 11.9 ± 0.4 mL, the Pepsin concentration [2, 12] was 25.4 ± 0.7 mg/mL and the Titrable acidity [2, 12] was 127.1±4.6 mEq/L. The Acid output [2, 12] was 215.5±10.3 μEq/hr, the “effect on acid output (in words)” value [2, 13] was “considerably increases the titrable acidity and acid output” and the “effect on titrable acidity (in words)” value [2, 13] was “considerably increases the titrable acidity”. For the same compound, the Gastric juice volume [2, 14] was 12.2 ± 0.3 mL, the Pepsin concentration [2, 14] was 23.6 ± 1.1 mg/mL and the Titrable acidity [2, 14] was 139.4±3.4 mEq/L. The Acid output [2, 14] was 243.9±8.1 μEq/hr, the “pepsin concentration (in words)” value ([2]; L-glutamine at a wide range of doses) was “maintained at a normal level” and the Ulcer index ([3]; L-glutamine 62.5 mg/kg oral) was 57.6±5.6 mm. The Inhibition ([3]; L-glutamine 62.5 mg/kg oral) was -5.0%, the “gastric lesions preventive effect” value [3, 9] was “no such effect is observed” and the Ulcer index ([3]; L-glutamine 125 mg/kg oral) was 27.9±4.7 mm. For the same compound, the Inhibition ([3]; L-glutamine 125 mg/kg oral) was 49.0%, the Ulcer index ([3]; L-glutamine 250 mg/kg oral) was 15.0±3.4 mm and the Inhibition ([3]; L-glutamine 250 mg/kg oral) was 72.6%. It also gave a Ulcer index ([3]; L-glutamine 500 mg/kg oral) of 18.0±3.1 mm, an Inhibition ([3]; L-glutamine 500 mg/kg oral) of 67.1% and a Ulcer index ([3]; L-glutamine 1,000 mg/kg oral) of 3.5±1.5 mm. For the same compound, the Inhibition ([3]; L-glutamine 1,000 mg/kg oral) was 93.6%, the “animals with stomachs quite clear and no mucosal defect” value ([3]; L-glutamine 1000 mg/kg, aspirin 100 mg/kg) was “three out of 12” and the inhibition in vivo at 750 mg/kg ([4]; Rattus norvegicus, po, read-out: Inhibition) was 87.8%. For the same compound, the Ulcer index ([4]; amino acid 750 mg/kg oral, aspirin by gastric intubation) was 5.5±2.0 mm, the “Amino acid pH” value [5] was 6.65 and the “prevention or treatment of certain experimental ulcers” value (experimental ulcers) was “effective for the prevention or treatment of certain experimental ulcers”. For the same compound, the “influence on analgesic activity of aspirin” value [6] was “not substantially influenced”, the “effect on the prevention of indomethacin-induced gastric lesions” value ([7]; L-glutamine 15.6 mg/kg) was “no effect” and the Ulcer index ([7]; L-glutamine 15.6 mg/kg oral) was 12.1±3.5 mm. For the same compound, the Inhibition ([7]; L-glutamine 15.6 mg/kg oral) was 3.2%, the “inhibition of gastric lesions (in words)” value ([7]; L-glutamine 31.3 mg/kg) was “fairly inhibits the gastric lesions but the inhibition is not significant” and the Ulcer index ([7]; L-glutamine 31.3 mg/kg oral) was 5.0±1.1 mm. The Inhibition ([7]; L-glutamine 31.3 mg/kg oral) was 60.0%, the “prevention of indomethacin-induced gastric lesions” value ([7]; L-glutamine 62.5 mg/kg - 1000 mg/kg) was “effective for the prevention of indomethacin-induced gastric lesions” and the Ulcer index ([7]; L-glutamine 62.5 mg/kg oral) was 2.6±0.8 mm. For the same compound, the Inhibition ([7]; L-glutamine 62.5 mg/kg oral) was 79.2%, the Ulcer index ([7]; L-glutamine 125 mg/kg oral) was 3.9±1.5 mm and the Inhibition ([7]; L-glutamine 125 mg/kg oral) was 68.8%. The Ulcer index ([7]; L-glutamine 250 mg/kg oral) was 2.4±0.4 mm, the Inhibition ([7]; L-glutamine 250 mg/kg oral) was 80.8% and the Ulcer index ([7]; L-glutamine 500 mg/kg oral) was 1.6±0.7 mm. It also gave an Inhibition ([7]; L-glutamine 500 mg/kg oral) of 87.2%, a Ulcer index ([7]; L-glutamine 1,000 mg/kg oral) of 0.5±0.3 mm and an Inhibition ([7]; L-glutamine 1,000 mg/kg oral) of 96.0%.
